Biological target: Programmed cell death 1 ligand/protein 1 (Homo sapiens, UniProt Q15116+Q9NZQ7)
Test: PD1-PDL1 HTRF Binding Activity Assay
Description: 1) Pre-diluted compound solution, 4 μL of Tag1-PD-L1 and 4 μL of Tag2-PD1 were added to each well of a 384-well plate:2) After the mixture was incubated at room temperature for 15 min, 5 μL of anti-Tag1-Eu3+ antibody and 5 μL of anti-Tag2-XL665 antibody were then added;3) After incubated for 2 hrs at room temperature or overnight at 4° C., plates were read on Envision of Pelkin Elmer; and readings at 665 nm and 620 nm were recorded, and the ratio of the two readings was taken as a reading for each well;4) The reading of each well after compound treatment was compared with the reading of DMSO treated wells to obtain the percent inhibition of the compound;5) IC50 values of compounds and positive compounds of the examples of the present invention were determined by non-linear regression analysis of percent inhibition at different compound concentrations.

Programmed cell death 1 ligand/protein 1, sequence (Q9NZQ7 whole entry): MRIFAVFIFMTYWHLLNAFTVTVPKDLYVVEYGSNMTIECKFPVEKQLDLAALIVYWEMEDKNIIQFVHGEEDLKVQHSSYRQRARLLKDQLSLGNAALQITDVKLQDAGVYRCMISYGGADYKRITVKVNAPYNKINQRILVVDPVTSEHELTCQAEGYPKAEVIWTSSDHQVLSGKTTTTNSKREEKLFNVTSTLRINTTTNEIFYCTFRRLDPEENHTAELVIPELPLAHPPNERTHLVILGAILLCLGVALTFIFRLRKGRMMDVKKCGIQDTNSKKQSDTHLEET
Programmed cell death 1 ligand/protein 1, sequence (Q15116 whole entry): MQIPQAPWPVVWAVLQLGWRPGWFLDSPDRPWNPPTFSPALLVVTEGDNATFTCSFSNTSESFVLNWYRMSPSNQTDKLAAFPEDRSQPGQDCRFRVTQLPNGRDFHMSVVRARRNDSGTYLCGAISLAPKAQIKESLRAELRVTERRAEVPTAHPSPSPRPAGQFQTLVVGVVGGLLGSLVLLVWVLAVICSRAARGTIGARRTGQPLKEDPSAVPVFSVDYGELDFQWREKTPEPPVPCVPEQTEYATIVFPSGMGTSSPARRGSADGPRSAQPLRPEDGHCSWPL

CC(C)N1CCc2cc(C(=O)Nc3cccc(-c4cccc(NC(=O)c5cc(C6CC6)c(CN6CCCC[C@H]6C(=O)O)cn5)c4Cl)c3Cl)ncc2C1 [US12552811, Example 32]
IC50: 0.661 nM

From BindingDB's records for patent US12552811 (Abbisko Therapeutics Co., 2026)
